Where a name gives a salt, the structure may show the parent alone.
Legend:
[1] = Assay 2: brain blood barrier penetration assay (short oral absorption model plus in vitro blood and brain binding); assay type: in vivo; conditions: rat, male Han Wistar rats, oral 2 mg/kg, Kp,uu=AUC (brain)/AUC (blood)×(fu,brain/fu.blood)
Procedure: Assay 2: Brain Blood Barrier Penetration Assay
It is believed that Kp,uu, the relationship between concentrations of unbound drug in brain and in blood, is the key to prediction of CNS action and should be the main parameter measured and optimized for in drug discovery (Di L et al., Journal of Medicinal Chemistry [2013], 56: 2-12).
In vitro blood and brain binding assay was carried out on a HT-Dialysis plate (Gales Ferry, Conn.) with semi-permeable membrane. Diluted blood (1:1 with DPBS pH7.4) and brain homogenate (1:3 with DPBS pH7.4) were spiked with 5 μM test compound (in triplicate) and dialyzed against equal volume of 150 μL 100 mM PBS buffer (pH7.4) at 37° C. for 4 hours in a slowly rotated plate. At the end of incubation, a 50 μL aliquot from the receiver side and a 5 μL from the donor chamber were taken. The 5 μL sample was further diluted with 45 μL of blank blood or brain homogenate. Paired samples were matrix-matched with either buffer or blank blood/brain homogenate and mixed for 2 min, and then precipitated with 150 μL cold acetonitrile with 100 ng/mL tolbutamide as internal standard. After centrifuging at 4000 rpm for 20 min, supernatant was diluted with 0.1% formic acid aqueous solution and analyzed for LC/MS/MS (API 4000, Applied Biosystems, Foster City). […]. D is dilution factor.
A Short oral absorption (SOA) model is an in-vivo screening model to identify brain penetration of a compound. […]
Standards were prepared by spiking blank blood, brain homogenate and artificial CSF covering 0.2 to 500 ng/mL. […] After 2 min vortex and 5 min centrifugation at 14,000 rpm, supernatant was analyzed by LC/MS/MS (API 4000, Applied Biosystems, Foster City). […] For brain and CSF samples, one standard curve was analyzed along with test samples.
Total brain levels, expressed as brain/blood ratio (Kp) were measured by AUCbrain/AUCblood in rodents after oral administration. Free fraction of test compound in biological matrix was determined by in vitro blood and brain binding assay. Kp,uu was calculated by the following equation: Kp,uu=AUC (brain)/AUC (blood)×(fu,brain/fu.blood).

endogenous p-EGFR = assay: Assay 1: cellular phosphorylation assay, overall statement; assay type: cell-based, human; conditions: Assay 1, statement on the table
Excerpt: Assay 1: Cellular Phosphorylation Assay
The human lung cell line NCI-H3255 (L858R) was obtained from the American Type Culture Collection. The NCI-H3255 cells were maintained in BEBM media (Lonza; CC-3171), containing 10% fetal bovine serum (FBS) (Gibco; 10099-141), supplemented with BEGM kit (Lonza; CC-4175). The human lung cell line PC-9 (Exon 19 deletion EGFR) was obtained from the American Type Culture Collection. PC-9 cells were maintained in RPMI 1640 (Gibco; 22400-089), containing 10% fetal bovine serum. The human lung cell line NCI-H838 (EGFR wild type) was obtained from the American Type Culture Collection. NCI-H838 cells were maintained in RPMI 1640 (Gibco; 22400-089), containing 10% fetal bovine serum.
All cells were grown in a humidified incubator at 37° C. with 5% CO2. Assays to measure cellular phosphorylation of endogenous p-EGFR in cell lysates were carried out according to the protocol described in the PathScan® Phospho-EGF Receptor (Tyr1068) Sandwich ELISA Kit (Cell Signalling kit catalogue number #7240).
100 μL of cells were seeded (32000 cells/well) in RPMI 1640+1% fetal bovine serum in Corning Costar, 96 well cell culture plates and incubated at 37° C. with 5% CO2 overnight. Cells were acoustically dosed using a […], with compounds serially diluted in 100% DMSO. Cell plates were incubated for a further 4 h after the compounds were added, (for NCI-H838: rhEGF (R&D catalogue number#236-EG) was added to cell plate with final concentration 100 ng/ml rhEGF to stimulate 5 minutes), then following aspiration of medium, 110 μL IP lysis buffer (IP lysis buffer: add 1:100 phosphatase inhibitor cocktail 2&3 (Sigma catalogue number P5726&P0044), 1:100 protease inhibitor cocktail (Sigma catalogue number P8340) to Pierce IP lysis buffer (Thermo catalogue number #87788)) was added to each well. The plates were put at 4° C. with rotation 300 rpm for 0.5-1 hour. […] 100 μl stop solution (Cell Signalling kit catalogue number#7240) was added to the plates and absorbance read at 450 nm within 30 minutes on SpectraMax M5e plate reader. […]

| Compound | Kp uu ([1]; brain / blood (unbound)) | potency compared with gefitinib and erlotinib (endogenous p-EGFR) | Kp uu ([1]; in vivo) |
| --- | --- | --- | --- |
| COc1cc2ncnc(Nc3cccc(Cl)c3F)c2cc1OC(=O)N1CCN(C)C[C@@H]1C [Example 3, 4-[(3-Chloro-2-fluorophenyl)amino]-7-methoxyquinazolin-6-yl (2S)-2,4-dimethylpiperazine-1-carboxylate] | 1.6 | comparable potency to gefitinib and erlotinib |  |
| COc1cc2ncnc(Nc3cccc(Cl)c3F)c2cc1OC(=O)N1CCN(C)C[C@H]1C [Example 2, 4-[(3-Chloro-2-fluorophenyl)amino]-7-methoxyquinazolin-6-yl (2R)-2,4-dimethylpiperazine-1-carboxylate hydrochloride] |  | comparable potency to gefitinib and erlotinib |  |
| COc1cc2ncnc(Nc3cccc(Cl)c3F)c2cc1OC(=O)N1CCN(C)C[C@H]1C [Example 1, 4-[(3-Chloro-2-fluorophenyl)amino]-7-methoxyquinazolin-6-yl (2R)-2,4-dimethylpiperazine-1-carboxylate] |  | comparable potency to gefitinib and erlotinib | 1.3 |
| CNC(=O)CN1CCC(Oc2cc3c(Nc4cccc(Cl)c4F)ncnc3cc2OC)CC1 [sapitinib, reference compound] | 0.12 |  |  |

— US9718806B2, “Quinazoline inhibitors of activating mutant forms of epidermal growth factor receptor” (AstraZeneca AB, priority 2013, dated 2017)
